Data: patent publication US20260062422A1 (Halda Therapeutics OpCo, Inc., priority 2022, published 2026)

These molecules were tested on T-Rex 293 cell line SC cells lacking increased expression of progesterone receptor isoform B protein (assay: Cellular growth inhibition, T-Rex 293 SC cells without doxycycline, Example 47). Settings: T-Rex 293 SC cells not exposed to doxycycline, 72 hours, CellTiter-Glo 2.0; Table 15 (Example 47).
Assay type: cell-based
Method: The following types of cells were prepared for this experiment: (i) a T-Rex 293 cell line having increased expression of progesterone receptor isoform B protein due to exposure to doxycycline and (ii) a T-Rex 293 cell line lacking increased expression of progesterone receptor isoform B protein. Ability of the test compounds to inhibit proliferation of the foregoing cell types was evaluated according to the procedures set forth below.
The doxycycline-inducible progesterone receptor isoform B protein expressing cell line was established using the following protocol: T-Rex 293 cells were purchased from Invitrogen (Cat #R71007) and transfected using Lipofectamine 2000 with the wild-type progesterone receptor B protein sequence cloned into the pcDNA4/TO vector. Transfected cells were selected using 400 μg/mL Zeocin (Invitrogen Cat #R25001). Following selection, single clones were raised and maintained in Dulbecco's Modified Eagle Medium (DMEM) supplemented with 10% w/w Tetracycline-free fetal bovine serum (FBS) and 250 μg/mL Zeocin. Clones were analyzed for expression of progesterone receptor isoform B protein in the presence and absence of 10 ng/mL doxycycline (Sigma Cat #D9891), and a single doxycycline-inducible clone (hereinafter “SC”) was selected for use in downstream assays.
The SC cells were seeded on poly-D-lysine coated, black clear-bottom 384-well plates at 2500/well, in 25 μL Phenol Red Free Dulbecco's Modified Eagle Medium (DMEM) supplemented with 10% w/w charcoal-dextran treated fetal bovine serum (FBS) and 1% w/w pen-strep, with or without 10 ng/mL doxycycline. Pen-Strep is a commercially available mixture of penicillin G and streptomycin, which is used in mammalian cell culture media to prevent bacterial contamination. Phenol Red Free Dulbecco's Modified Eagle Medium (DMEM) supplemented with 10% w/w charcoal-dextran treated fetal bovine serum (FBS) and 1% w/w pen-strep, with or without 10 ng/mL doxycycline is herein referred to as Treatment Medium. Following seeding of cells in the plates, the plates were spun at 300×g for 30 seconds, then equilibrated to room temperature for 30 minutes, and then deposited in a humidified tissue culture incubator maintained at 37° C. with 5% CO2.
At 24 hours after seeding of the cells, dilutions of test compound were prepared in DMSO and dissolved in Treatment Medium, to achieve a final DMSO concentration of 0.5% w/w, thereby providing the Test Compound Solution. A 25 μL aliquot of the Test Compound Solution was added to cells in the well plates. An equal volume of a solution containing DMSO and Treatment Medium was used as a negative control. Following treatment of cells with Test Compound Solution or said equal volume of a solution containing DMSO and Treatment Medium, the plates were spun at 300×g for 30 seconds, and then left in an incubator for 72 hours.
At the end of the treatment duration, cell viability was quantified with CellTiter-Glo 2.0 reagent (Promega Cat #G9243). For this purpose, plates were equilibrated to room temperature for 30 minutes, and then 25 μL of CellTiter-Glo 2.0 reagent was added to cells in the plate wells. Plates were then agitated on a shaker for two minutes at 500 rpm and subsequently incubated at room temperature for 10 minutes. Following incubation, the plates were spun at 3000×g for 30 seconds, then sealed with an optical adhesive cover, and luminescence readings were measured with an EnVision Plate Reader (Perkin Elmer).
Data was normalized using zero luminescence for baseline. A four-parameter non-linear regression curve fit was applied to dose-response data in GraphPad Prism data analysis software to determine the half-maximal growth inhibitory concentration (GI50) for each test compound.

Row | SMILES | GI50 [µM]
1 | Cc1sc2c(c1C)C(c1ccc(Cl)cc1)=N[C@@H](CC(=O)NCCOCCOCCOCCOCCOC1CCN(c3ncc(C(=O)N[C@H]4C(C)(C)[C@H](Oc5ccc(C#N)c(Cl)c5)C4(C)C)cn3)CC1)c1nnc(C)n1-2 [Compound I-8] | 0.5 to 1.5
2 | Cc1sc2c(c1C)C(c1ccc(Cl)cc1)=N[C@@H](CC(=O)NCCCCCOC1CCN(c3ncc(C(=O)N[C@H]4C(C)(C)[C@H](Oc5ccc(C#N)c(Cl)c5)C4(C)C)cn3)CC1)c1nnc(C)n1-2 [Compound I-22, N-((1r,3r)-3-(3-chloro-4-cyanophenoxy)-2,2,4,4-tetramethylcyclobutyl)-2-(4-((5-(2-((S)-4-(4-chlorophenyl)-2,3,9-trimethyl-6H-thieno[3,2-A][1,2,4]triazolo[4,3-a][1,4]diazepin-6-yl)acetamido)pentyl)oxy)piperidin-1-yl)pyrimidine-5-carboxamide] | > 3
3 | Cc1sc2c(c1C)C(c1ccc(Cl)cc1)=N[C@@H](CC(=O)NCCOCCOCCOCCOCCN(C)c1ncc(C(=O)N[C@H]3C(C)(C)[C@H](Oc4ccc(C#N)c(Cl)c4)C3(C)C)cn1)c1nnc(C)n1-2 [Compound I-3, N-((1r,3r)-3-(3-chloro-4-cyanophenoxy)-2,2,4,4-tetramethylcyclobutyl)-2-((1-((S)-4-(4-chlorophenyl)-2,3,9-trimethyl-6H-thieno[3,2-f][1,2,4]triazolo[4,3-a][1,4]diazepin-6-yl)-2-oxo-6,9,12,15-tetraoxa-3-azaheptadecan-17-yl)(methyl)amino)pyrimidine-5-carboxamide] | 1.5 to 3
4 | CCNC(=O)C[C@@H]1N=C(c2cccc(OCCOCCOCCOC3CCN(c4ncc(C(=O)N[C@H]5C(C)(C)[C@H](Oc6ccc(C#N)c(Cl)c6)C5(C)C)cn4)CC3)c2)c2c(sc(C)c2C)-n2c(C)nnc21 [Compound I-48, N-((1r,3r)-3-(3-chloro-4-cyanophenoxy)-2,2,4,4-tetramethylcyclobutyl)-2-(4-(2-(2-(2-(3-((S)-6-(2-(ethylamino)-2-oxoethyl)-2,3,9-trimethyl-6H-thieno[3,2-f][1,2,4]triazolo[4,3-a][1,4]diazepin-4-yl)phenoxy)ethoxy)ethoxy)ethoxy)piperidin-1-yl)pyrimidine-5-carboxamide] | > 3
5 | Cc1sc2c(c1C)C(c1ccc(Cl)cc1)=N[C@H](CC(=O)NCCOCCOCCOCCOC1CCN(c3ncc(C(=O)N[C@H]4C(C)(C)[C@H](Oc5ccc(C#N)c(Cl)c5)C4(C)C)cn3)CC1)c1nnc(C)n1-2 [Compound I-13] | 1.5 to 3
6 | Cc1sc2c(c1C)C(c1ccc(OC3CC4(CCN(c5ncc(C(=O)N[C@H]6C(C)(C)[C@H](Oc7ccc(C#N)c(Cl)c7)C6(C)C)cn5)CC4)C3)cc1)=N[C@@H](Cc1ncco1)c1nnc(C)n1-2 [Compound I-49, N-[3-(3-chloro-4-cyano-phenoxy)-2,2,4,4-tetramethyl-cyclobutyl]-2-[2-[4-[(9S)-4,5,13-trimethyl-9-(oxazol-2-ylmethyl)-3-thia-1,8,11,12-tetrazatricyclo[8.3.0.02,6]trideca-2(6),4,7,10,12-pentaen-7-yl]phenoxy]-7-azaspiro[3.5]nonan-7-yl]pyrimidine-5-carboxamide] | 0.5 to 1.5
7 | Cc1sc2c(c1C)C(c1ccc(Cl)cc1)=N[C@H](CC(=O)NCCOCCOCCOCCOCCN(C)c1ncc(C(=O)N[C@H]3C(C)(C)[C@H](Oc4ccc(C#N)c(Cl)c4)C3(C)C)cn1)c1nnc(C)n1-2 [Compound I-19] | 1.5 to 3
8 | Cc1sc2c(c1C)C(c1ccc(Cl)cc1)=N[C@@H](CC(=O)NCCOC1CCN(c3ncc(C(=O)N[C@H]4C(C)(C)[C@H](Oc5ccc(C#N)c(Cl)c5)C4(C)C)cn3)CC1)c1nnc(C)n1-2 [Compound I-6] | < 0.5
9 | Cc1sc2c(c1C)C(c1ccc(Cl)cc1)=N[C@@H](CC(=O)NCCOCCOCCOCCOC1CCN(c3ncc(C(=O)N[C@H]4C(C)(C)[C@H](Oc5ccc(C#N)c(Cl)c5)C4(C)C)cn3)CC1)c1nnc(C)n1-2 [Compound I-11] | < 0.5
10 | Cc1sc2c(c1C)C(c1ccc(Cl)cc1)=N[C@@H](CC(=O)NCCOCCOCCOCC1CCN(c3ncc(C(=O)N[C@H]4C(C)(C)[C@H](Oc5ccc(C#N)c(Cl)c5)C4(C)C)cn3)CC1)c1nnc(C)n1-2 [Compound I-17] | > 3
11 | Cc1sc2c(c1C)C(c1ccc(Cl)cc1)=N[C@H](CC(=O)NCCOCCOCCOCCOCCOC1CCN(c3ncc(C(=O)N[C@H]4C(C)(C)[C@H](Oc5ccc(C#N)c(Cl)c5)C4(C)C)cn3)CC1)c1nnc(C)n1-2 [Compound I-14] | 1.5 to 3
12 | Cc1sc2c(c1C)C(c1ccc(Cl)cc1)=N[C@@H](CC(=O)NCCOCCOCCOCCOCCOCCOCCN(C)c1ncc(C(=O)N[C@H]3C(C)(C)[C@H](Oc4ccc(C#N)c(Cl)c4)C3(C)C)cn1)c1nnc(C)n1-2 [Compound I-4] | 1.5 to 3

These molecules were tested against T1, BRD4-BD2 (Homo sapiens, UniProt O60885) (assay: bromoKdELECT assay for binding affinity to BRD4-BD2). Settings: Table 7.
T1 construct: made in house; host or cells: T7 phage grown in an E. coli host derived from BL21
Method: Compounds were tested using a bromoKdELECT assay. T7 phage strains displaying bromodomains were grown in parallel in 24-well blocks in an E. coli host derived from the BL21 strain. E. coli were grown to log-phase and infected with T7 phage from a frozen stock (multiplicity of infection=0.4) and incubated with shaking at 32° C. until lysis (90-150 minutes). The lysates were centrifuged (5,000×g) and filtered (0.2 μm) to remove cell debris. Streptavidin-coated magnetic beads were treated with biotinylated small molecule or acetylated peptide ligands for 30 minutes at room temperature to generate affinity resins for bromodomain assays. The liganded beads were blocked with excess biotin and washed with blocking buffer (SeaBlock (Pierce), 1% BSA, 0.05% Tween 20, 1 mM DTT) to remove unbound ligand and to reduce nonspecific phage binding. Binding reactions were assembled by combining bromodomains, liganded affinity beads, and test compounds in 1× binding buffer (17% SeaBlock, 0.33×PBS, 0.04% Tween 20, 0.02% BSA, 0.004% Sodium azide, 7.4 mM DTT). Test compounds were prepared as 1000× stocks in 100% DMSO. Kds were determined using an 11-point 3-fold compound dilution series with one DMSO control point. All compounds for Kd measurements are distributed by acoustic transfer (non-contact dispensing) in 100% DMSO. The compounds were then diluted directly into the assays such that the final concentration of DMSO was 0.09%. All reactions performed in polypropylene 384-well plates. Each was a final volume of 0.02 ml. The assay plates were incubated at room temperature with shaking for 1 hour and the affinity beads were washed with wash buffer (1×PBS, 0.05% Tween 20). The beads were then resuspended in elution buffer (1×PBS, 0.05% Tween 20, 2 μM non-biotinylated affinity ligand) and incubated at room temperature with shaking for 30 minutes. The bromodomain concentration in the eluates was measured by qPCR.

Row | SMILES | Kd [µM]
13 | CCNC(=O)C[C@@H]1N=C(c2ccc(OCC3CN(c4ncc(C(=O)N[C@H]5C(C)(C)[C@H](Oc6ccc(C#N)c(Cl)c6)C5(C)C)cn4)C3)cc2)c2c(sc(C)c2C)-n2c(C)nnc21 [Compound I-71] | < 0.05
